Reference: publication PMC9917830, “New Piperazine Derivatives of 6-Acetyl-7-hydroxy-4-methylcoumarin as 5-HT1A Receptor Agents” (International Journal of Molecular Sciences, 2023)
Read-outs that look alike come from different tables or passages of the source.

Experiments:
5-HT2A receptor = biological target: T1, 5-HT2A receptor (Rattus norvegicus, UniProt P14842); assay: Competitive 5-HT2A binding assay with [3H]ketanserin, rat frontal cortex membranes; settings: 1 nM [3H]ketanserin
T1 construct: Brains were rapidly removed and placed on ice; from tissue; host or cells: Sprague–Dawley rat frontal cortex membranes
Protocol: (§1) Sprague–Dawley rats were sacrificed by isoflurane overdose. Brains were rapidly removed and placed on ice. Hippocampi (for 5-HT1A assays) and frontal cortices (for 5-HT2A assays) were dissected on a Petri dish. The tissue from 10 rats was homogenized in 30 vol. homogenization buffer (50 mM Tris-HCl, […], 1 mM EDTA, 1 mM dithiothreitol) with a hand-held Teflon-glass homogenizer. The homogenate was centrifuged at 48,000× g at 4 °C for 15 min. The pellet was suspended and homogenized in homogenization buffer and incubated for 10 min at 36 °C. The centrifugation and suspension steps were repeated twice. The final pellet was homogenized in 5 vol. 50 mM Tris-HCl, pH = 7.4 buffer and stored at −80 °C for not more than 6 months.
(§2) Non-specific binding was determined with 10 μM serotonin in both assays. The final DMSO concentration in the assay was 5%. After incubation, the reaction mixture was deposited with the FilterMate-96 Harvester (Perkin Elmer, Waltham, MA, USA) onto Unifilter® GF/C plates (Perkin Elmer, Waltham, MA, USA) presoaked in 0.4% PEI for 1h. Each well was washed with 2 mL of 50 mM Tris-HCl (pH 7.4) buffer to separate bound ligands from free ones. Plates were left to dry overnight. Then, 35 µL of Microscint-20 scintillation fluid (Perkin Elmer, Waltham, MA, USA) was added to each filter well and left to equilibrate for 2 h. Filter-bound radioactivity was counted in a MicroBeta^2 LumiJet scintillation counter (Perkin Elmer, Waltham, MA, USA). Binding curves were fitted with one-site non-linear regression. Binding affinity (pKi ± SEM and Ki ± 95% confidence intervals) for each compound was calculated from […] values with the Cheng-Prusoff equation from two separate experiments.

5-HT1A receptor [1] = biological target: T2, 5-HT1A receptor (Rattus norvegicus, UniProt P19327); assay: 5-HT1A receptor activation in the [35S]GTP-γ-S assay (agonist and antagonist mode); format: biochemical; settings: for IC50: read-out: 5-HT1A Receptor Inhibition IC50 (nM, 95% CI); for agonist or antagonist properties at the 5-HT1A receptor: result in words; for Emax / EC50: agonist mode; for Emax: efficacy ± SEM; for EC50: rat hippocampal membranes
T2 construct: Brains were rapidly removed and placed on ice; from tissue; host or cells: Sprague–Dawley rat hippocampus membranes
T2 sequence (P19327 1-422): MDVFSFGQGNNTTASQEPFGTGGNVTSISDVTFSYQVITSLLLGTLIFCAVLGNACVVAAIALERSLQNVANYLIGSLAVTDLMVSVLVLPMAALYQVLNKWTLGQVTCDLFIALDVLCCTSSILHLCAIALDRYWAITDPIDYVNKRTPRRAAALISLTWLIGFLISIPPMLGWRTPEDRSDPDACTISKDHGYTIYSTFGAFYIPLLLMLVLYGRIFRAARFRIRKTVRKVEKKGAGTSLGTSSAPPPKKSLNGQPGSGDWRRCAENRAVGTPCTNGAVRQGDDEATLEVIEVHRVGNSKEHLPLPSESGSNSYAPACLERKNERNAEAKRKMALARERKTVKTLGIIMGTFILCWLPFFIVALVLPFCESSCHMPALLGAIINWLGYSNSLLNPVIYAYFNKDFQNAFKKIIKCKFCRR
Protocol: as §1, with “The pellet was suspended and homogenized in homogenization buffer and incubated for 10 min at 36 °C.” left out
Non-specific binding was determined with 100 µM of unlabeled GTPγS. The compounds were tested in both the agonist and antagonist mode. […] The final DMSO concentration in the assay was 5%. The reaction mixture was incubated for 90 min at 30 °C on an orbital shaker set at 250 rpm. The reaction mixture was then deposited under vacuum with the FilterMate Harvester® (Perkin Elmer, Waltham, MA, USA) onto Unifilter® GF/C Plates (Perkin Elmer, Waltham, MA, USA) presoaked with wash buffer (50 mM Tris-HCl, pH = 7.4). The wells were then rapidly washed with 2 mL of wash buffer. The filter plates were dried overnight at room temperature. Once completely dry, 35 µL of MicroScint PS (Perkin Elmer, Waltham, MA, USA) scintillation fluid was added to each well. Radioactivity was counted in a MicroBeta^2 LumiJet scintillation counter (Perkin Elmer, Waltham, MA, USA). […] The curves were fitted with the three-parameter non-linear regression model.

5-HT1A receptor [2] = biological target: T2, 5-HT1A receptor; assay: Competitive 5-HT1A binding assay with [3H]8-OH-DPAT, rat hippocampal membranes; settings: 1 nM [3H]8-OH-DPAT
Protocol: as §1, §2

[3] = 95% CI in brackets, read-out: 5-HT2A Affinity Ki (nM, 95% CI)
[4] = 95% CI in brackets, read-out: 5-HT1A Affinity Ki (nM, 95% CI)
[5] = ± SEM, read-out: 5-HT2A Affinity pKi (converted)
[6] = 95% CI in brackets, read-out: 5-HT1A Receptor Stimulation EC50 (nM, 95% CI)
[7] = ± SEM, two experiments, read-out: 5-HT1A Affinity pKi (nM ± SEM) (converted)

T1 sequence (P14842 whole entry): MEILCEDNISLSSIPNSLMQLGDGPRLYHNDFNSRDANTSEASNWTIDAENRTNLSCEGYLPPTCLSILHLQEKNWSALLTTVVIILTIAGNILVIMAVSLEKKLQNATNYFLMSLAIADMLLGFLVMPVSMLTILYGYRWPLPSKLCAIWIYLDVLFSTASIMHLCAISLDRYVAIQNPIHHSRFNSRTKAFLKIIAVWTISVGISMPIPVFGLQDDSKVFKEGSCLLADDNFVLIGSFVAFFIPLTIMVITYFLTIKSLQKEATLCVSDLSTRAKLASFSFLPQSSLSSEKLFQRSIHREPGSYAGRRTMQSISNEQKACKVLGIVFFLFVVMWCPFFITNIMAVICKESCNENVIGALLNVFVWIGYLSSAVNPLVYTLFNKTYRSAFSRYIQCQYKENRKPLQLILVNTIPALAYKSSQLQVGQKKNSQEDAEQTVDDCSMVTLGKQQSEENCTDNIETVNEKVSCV

| Compound | Ki (5-HT2A receptor; [3]) [nM] | IC50 (5-HT1A receptor [1]) [nM] | agonist or antagonist properties at the 5-HT1A receptor (5-HT1A receptor [1]) | melting point [°C] | Ki (5-HT1A receptor [2]; [4]) [nM] | Ki (5-HT2A receptor; [5]) [nM] | Emax (5-HT1A receptor [1]) [%] | EC50 (5-HT1A receptor [1]; [6]) [nM] | Ki (5-HT1A receptor [2]; [7]) [nM] | EC50 (5-HT1A receptor [1]; read-out: 5-HT1A Receptor Stimulation pEC50 (nM ± SEM) (converted)) [nM] |
| --- | --- | --- | --- | --- | --- | --- | --- | --- | --- | --- |
| COc1ccccc1N1CCN(CCCCOc2cc3oc(=O)cc(C)c3cc2C(C)=O)CC1 [Compound 1, 6-Acetyl-7-{4-[4-(2-methoxyphenyl)piperazin-1-yl]butoxy}-4-methylchromen-2-one] | 1420 | 301 | antagonistic properties | 126 to 127 | 5.75 | – | – | – | – | – |
| COc1cccc(N2CCN(CCCCOc3cc4oc(=O)cc(C)c4cc3C(C)=O)CC2)c1 [Compound 2, 6-Acetyl-7-{4-[4-(3-methoxyphenyl)piperazin-1-yl]butoxy}-4-methylchromen-2-one] | 1160 | – | agonistic activity | – | 12.9 | 1170 | 146 ± 1.1 | 181 | – | – |
| CC(=O)c1cc2c(C)cc(=O)oc2cc1OCCCCN1CCN(c2ccccc2Br)CC1 [Compound 3, 6-Acetyl-7-{4-[4-(2-bromophenyl)piperazin-1-yl]butoxy}-4-methylchromen-2-one] | 1020 | 5180 | antagonistic properties | 121 to 122 | 1.96 | – | – | – | – | – |
| CC(=O)c1cc2c(C)cc(=O)oc2cc1OCCCCN1CCN(c2cccc(Br)c2)CC1 [Compound 4, 6-Acetyl-7-{4-[4-(3-bromophenyl)piperazin-1-yl]butoxy}-4-methylchromen-2-one] | 1160 | – | agonistic profile | 109 to 110 | 0.78 | – | 176 ± 1.2 | 113 | 0.759 | – |
| CC(=O)c1cc2c(C)cc(=O)oc2cc1OCCCCN1CCN(c2ccc(Br)cc2)CC1 [Compound 5, 6-Acetyl-7-{4-[4-(4-bromophenyl)piperazin-1-yl]butoxy}-4-methylchromen-2-one] | 1350 | 63200 | antagonistic properties | 145 to 146 | 1.4 | – | – | – | – | – |
| CC(=O)c1cc2c(C)cc(=O)oc2cc1OCCCCN1CCN(c2ccccc2F)CC1 [Compound 6, 6-Acetyl-7-{4-[4-(2-fluorophenyl)piperazin-1-yl]butoxy}-4-methylchromen-2-one] | 1470 | – | – | 112 to 113 | 1.04 | – | 139 ± 1.1 | 101 | 1.07 | 102 |
| CC(=O)c1cc2c(C)cc(=O)oc2cc1OCCCCN1CCN(c2ccccc2Cl)CC1 [Compound 7, 6-Acetyl-7-{4-[4-(2-chlorophenyl)piperazin-1-yl]butoxy}-4-methylchromen-2-one] | 2080 | – | strongest agonist | 132 to 133 | 0.57 | – | 130 ± 1.4 | 49 | 0.55 | – |
| CC(=O)c1cc2c(C)cc(=O)oc2cc1OCCCCN1CCN(c2ccccc2C#N)CC1 [Compound 8, 6-Acetyl-7-{4-[4-(2-cyanophenyl)piperazin-1-yl]butoxy}-4-methylchromen-2-one] | 705 | – | – | 117 to 118 | 9.44 | – | 124 ± 1.1 | 59 | – | – |
| CC(=O)c1cc2c(C)cc(=O)oc2cc1OCCCCN1CCN(c2cccc(Cl)c2Cl)CC1 [Compound 9, 6-Acetyl-7-{4-[4-(2,3-dichlorophenyl)piperazin-1-yl]butoxy}-4-methylchromen-2-one] | 1290 | – | – | 111 to 112 | 6.3 | 1230 | 133 ± 1.3 | 149 | – | – |
| CC(=O)c1cc2c(C)cc(=O)oc2cc1OCCCCN1CCN(c2cc(C)cc(C)c2)CC1 [Compound 10, 6-Acetyl-7-{4-[4-(3,5-dimethylphenyl)piperazin-1-yl]butoxy}-4-methylchromen-2-one] | – | – | – | 101 to 102 | 22.4 | 513 | 139 ± 1.4 | 475 | – | – |
| CC(=O)c1cc2c(C)cc(=O)oc2cc1OCCCCN1CCN(c2cc(C)ccc2C)CC1 [Compound 11, 6-Acetyl-7-{4-[4-(2,5-dimethylphenyl)piperazin-1-yl]butoxy}-4-methylchromen-2-one] | 3710 | 21900 | – | 130 to 131 | 174 | 3980 | – | – | – | – |
| CC(=O)c1cc2c(C)cc(=O)oc2cc1OCCCCN1CCN(c2ccc([N+](=O)[O-])cc2)CC1 [Compound 12, 6-Acetyl-7-{4-[4-(4-nitrophenyl)piperazin-1-yl]butoxy}-4-methylchromen-2-one] | 1500 | 53400 | – | 138 to 139 | 1800 | 1550 | – | – | 1780 | – |
| CC(=O)c1cc2c(C)cc(=O)oc2cc1OCCCCN1CCOCC1 [Compound 13, 6-Acetyl-7-[4-(morpholin-4-yl)butoxy]-4-methylchromen-2-one] | 6390 | 93400 | – | 115 to 116 | 9620 | – | – | – | – | – |
| CC(=O)c1cc2c(C)cc(=O)oc2cc1OCCCCN1CCN(c2ccncc2)CC1 [Compound 14] | 3360 | 25000 | – | 107 to 108 | 1660 | – | – | – | – | – |
| CC(=O)c1cc2c(C)cc(=O)oc2cc1OCCCCN1CCN(c2cnccn2)CC1 [Compound 15, 6-Acetyl-7-{4-[4-(pyrazin-2-yl)piperazin-1-yl]butoxy}-4-methylchromen-2-one] | 6600 | – | agonistic profile | 150 to 151 | 25 | – | 170 ± 1.3 | 1300 | – | – |
